Patent US12376589B2, “Chryseobacterium insect inhibitory microbial compositions and methods of making and using” (priority 2021, dated 2025)
≈ marks a conversion by molar mass, not a printed value. Entries after “also recorded” stand apart in the source; their conditions may differ. Like-named read-outs stand apart in the source and are kept apart here.

Tests used:
[1] = system: Ostrinia nubilalis (European corn borer); test: Lepidopteran diet overlay bioassay
Procedure: (§1) Lepidopteran bioassays. Lepidopteran bioassays were performed at Benzon Research, Inc. (Carlisle, PA). 3,3′-Diindolylmethane samples were solubilized in dimethyl sulfoxide (DMSO). Samples were then frozen and shipped to Benzon. Samples were resuspended with 9× volumes of water before application to the assay well. The final DMSO concentration in the assay well was 2%. PLU6 extract samples were prepared as a series of three 1:5 dilutions in dimethyl sulfoxide. Samples were then further diluted with fresh NYSM broth, then shipped to Benzon Research for use in a diet overlay assay. Assays were performed using neonate larvae of 14 different Lepidopteran species (Anticarsia gemmatalis (velvetbean caterpillar), Diatraea grandiosella (southwestern corn borer), Diatraea saccharalis (sugarcane borer), Ostrinia nubilalis (European corn borer), Trichoplusia ni (cabbage looper), Chrysodeixis includens (soybean looper), Spodoptera exigua (beet armyworm), Spodoptera frugiperda (fall armyworm), Spodoptera eridania (southern armyworm), Chloridia virescens (tobacco budworm), Helicoverpa zea (corn earworm), Agrotis ipsilon (black cutworm), Cydia pomonella (codling moth), Plutella xylostella (diamondback moth) with an N=16 or N=32, apart from P. xylostella, for which third instar larvae were used. A diet-surface overlay format was used, in which 500 microliters of diet was placed in each well. One hundred microliters of sample was then pipetted into each well and allowed to dry. A DMSO control was included with each set of samples. An internal Btk (Bacillus thurengiensis kurstaki) standard at a concentration of 1000 ppm was used as a positive control, and water was used as a negative control.
Experiments were conducted in which mortality of lepidopteran larvae was measured after 7 days of diet overlay treatment with 3,3′-diindolylmethane at the concentrations indicated in Table 3. Mean mortalities and standard deviations were calculated from three independent experiments (each N=16). For each experiment, mortalities were corrected using Abbott's formula (Abbott (1987) “Method of computing the effectiveness of an insecticide” J. American Mosquito Control Association 2: 302-03, incorporated herein by reference). For all species except Plutella xylostella, neonates were used. For P. xylostella, third instar larvae were used. The positive control used was 1000 ppm of Bacillus thuringiensis kurstaki.

[2] = system: Chrysodeixis includens (soybean looper); test: Lepidopteran diet overlay bioassay; conditions: in Glycine max, 168 h, read-out: Mortalities (%) after 7 days of treatment (Abbott’s Correction), SBL
Procedure: as §1

[3] = system: Spodoptera eridania (southern armyworm); test: Lepidopteran diet overlay bioassay; conditions: 168 h, read-out: Mortalities (%) after 7 days of treatment (Abbott’s Correction), SAW
Procedure: as §1

[4] = system: Diatraea grandiosella (southwestern corn borer); test: Lepidopteran diet overlay bioassay; conditions: in Zea mays, 168 h, read-out: Mortalities (%) after 7 days of treatment (Abbott’s Correction), SWCB
Procedure: as §1

[5] = system: Helicoverpa zea (corn earworm); test: Lepidopteran diet overlay bioassay; conditions: 168 h, read-out: Mortalities (%) after 7 days of treatment (Abbott’s Correction), CEW
Procedure: as §1

[6] = system: Cydia pomonella (codling moth); test: Lepidopteran diet overlay bioassay; conditions: 168 h, read-out: Mortalities (%) after 7 days of treatment (Abbott’s Correction), CM
Procedure: as §1

[7] = system: Agrotis ipsilon (black cutworm); test: Lepidopteran diet overlay bioassay
Procedure: as §1

[8] = system: Diatraea saccharalis (sugarcane borer); test: Lepidopteran diet overlay bioassay; conditions: 168 h, read-out: Mortalities (%) after 7 days of treatment (Abbott’s Correction), SCB
Procedure: as §1

Aedes aegypti larvae = test: whole plant or invertebrate; conditions: for LC50: Aedes aegypti
Description: Measuring potency of 3,3-diindolylmethane and 3-((1H-indol-2-yl)methyl)-1H-indole. 3,3′-Diindolylmethane (also called arundine, CAS number: 1968-05-4) was purchased from MILLIPORESIGMA (cat #74601) and Cayman Chemical (catalog #15927). 3-((1H-indol-2-yl)methyl)-1H-indole (CAS number: 114648-66-7) was purchased from Ambeed (catalog #A735658). Compounds were resuspended in dimethyl sulfoxide (DMSO). For collecting data to construct dose curves for 3,3-diindolylmethane and 3-((1H-indol-2-yl)methyl)-1H-indole, a series of twenty 1:2 dilutions was made to test in bioassays, establish a dose curve, and determine the LC50 value.
Aedes aegypti bioassays with compounds. Assays were performed using second or third instar larvae, with biological replication. Larvae were washed with sterile water before transfer to 24-well assay plates containing 1 mL of sterile water in each well. Each well contained 5 larvae. Compound dilutions were made in DMSO, topped with sterile NYSM broth and applied to each assay well. The final DMSO concentration was 1% in each assay well. Larval mortality was scored for each well at 24-hour timepoints after application.
Heat treatments. Samples were heated in 1.5-mL microfuge tubes in a standard laboratory heat block at the indicated temperature and time.
The EtOAc fraction was redissolved in MeOH and subjected to chromatographic fractionation (FIG. 11C) using preparative reversed-phase HPLC (Phenomenex Luna phenylhexyl, 21.2 mm×15 cm, 5 μm, 20 mL/min, isocratic elution with 80% H2O/MeCN for 2 min followed by gradient elution from 80% H2O/MeCN to 100% MeCN over 30 min then isocratic elution with 100% MeCN for 5 min) to yield 30 fractions. The preparative HPLC fractions (at concentrations of 200 μg/mL and 20 μg/mL) were tested against Aedes aegypti.

[9] = system: Anticarsia gemmatalis (velvetbean caterpillar); test: whole plant or invertebrate
Procedure: as §1

[10] = system: Spodoptera exigua (beet armyworm); test: whole plant or invertebrate
Procedure: as §1

[11] = Ostrinia nubilalis, 168 h, read-out: Mortality, Ostrinia nubilalis (European corn borer)
[12] = Agrotis ipsilon, 168 h, read-out: Mortalities (%) after 7 days of treatment (Abbott’s Correction), BCW
[13] = Anticarsia gemmatalis, 168 h, read-out: Mortalities (%) after 7 days of treatment (Abbott’s Correction), VBC
[14] = Spodoptera exigua, 168 h, read-out: Mortalities (%) after 7 days of treatment (Abbott’s Correction), BAW

SMILES: c1ccc2c(Cc3c[nH]c4ccccc34)c[nH]c2c1 [3,3′-diindolylmethane, 3,3′-Diindolylmethane]
- mortality at 9.77 µg/mL [1, 11]: 2.08%
- mortality at 39.06 µg/mL [1, 11]: 2.08%
- mortality at 156.25 µg/mL [1, 11]: 4.17%
- mortality at 625 µg/mL [1, 11]: 6.25%
- mortality at 2500 µg/mL [1, 11]: 4.17%
- activity against O. nubilalis ([1]; diet overlay): low or not observed
- mortality at 156.25 µg/mL [2]: 26.7%
- mortality at 625 µg/mL [2]: 50%
- mortality at 2500 µg/mL [2]: 80%
- mortality at 156.25 µg/mL [3]: 22.6%
- mortality at 625 µg/mL [3]: 100%
- mortality at 2500 µg/mL [3]: 100%
- mortality at 156.25 µg/mL [4]: 46.7%
- mortality at 625 µg/mL [4]: 90%
- mortality at 2500 µg/mL [4]: 83.3%
- mortality at 156.25 µg/mL [5]: 40.6%
- mortality at 625 µg/mL [5]: 50%
- mortality at 2500 µg/mL [5]: 90.6%
- mortality at 156.25 µg/mL [6]: 21.4%
- mortality at 625 µg/mL [6]: 50%
- mortality at 2500 µg/mL [6]: 39.3%
- mortality at 156.25 µg/mL [7, 12]: 0%
- mortality at 625 µg/mL [7, 12]: 26.7%
- mortality at 2500 µg/mL [7, 12]: 20%
- activity against A. ipsilon ([7]; diet overlay): low or not observed
- mortality at 156.25 µg/mL [8]: 100%
- mortality at 625 µg/mL [8]: 100%
- mortality at 2500 µg/mL [8]: 100%
- LC50 (Aedes aegypti larvae; read-out: LC50 (representative curve fit)): 10.2 µg/mL (≈ 41.4 µM)
- LC50 (Aedes aegypti larvae; read-out: mean LC50): 7.5 ± 3 µg/mL (≈ 30.4 µM)
- activity against Aedes aegypti larvae (Aedes aegypti larvae; in vivo): exhibited larvicidal activity
- mortality at 156.25 µg/mL [9, 13]: 100%
- mortality at 625 µg/mL [9, 13]: 70%
- mortality at 2500 µg/mL [9, 13]: 96.7%
- activity against Anticarsia gemmatalis ([9]; diet overlay): active; also recorded: dose-dependent activity
- mortality at 156.25 µg/mL [10, 14]: 71.9%
- mortality at 625 µg/mL [10, 14]: 93.8%
- mortality at 2500 µg/mL [10, 14]: 71.9%
- activity against Spodoptera exigua ([10]; diet overlay): active; also recorded: dose-dependent activity
